Reference: patent US20140005163A1 (NOVARTIS AG, priority 2010, published 2014)

Tests used:
mTOR = target: T1, mTOR (Homo sapiens, UniProt P42345); assay: Biochemical assay for m-TOR by TR-FRET; settings: 8 μM ATP, 400 nM GFP-4EBP1, 0.5 nM mTOR
T1 construct: purchased Invitrogen Corporation (Carlsbad/CA, USA) PV4753
Outline: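 Steps: ATP (8 μM final) plus GFP-4EBP1 (400 nM final) combined with mTOR (0.5 nM final), incubated at rt; buffer HEPES pH 7.5 with 10 mM MnCl2, NaCl, EGTA, DTT. Then stopped with EDTA/Tb3+-anti-p4EBP1 pT46 Ab (0.5 nM). Plates read after 15 min.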

PI3K gamma = target: T2, PI3K gamma (Homo sapiens, UniProt P48736); assay: PI3K gamma kinase assay (Kinase-Glo luminescence); assay type: biochemical
T2 construct: His tag (C); made in house; host or cells: baculovirus (pVL1393); Tn5 or TiniPro insect cells; construct from Roger Williams lab, MRC LMB
Outline: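 Luminescent ATP-depletion (Kinase-Glo) assay with 150 nM PI3Kγ, 1 μM ATP and 10 μg/mL phosphatidylinositol in 10 mM Tris-HCl pH 7.5, 3 mM MgCl2, 50 mM NaCl, 0.05% CHAPS, 1 mM DTT; 120 min at room temperature. Eight-point dilutions; IC50 by four-parameter logistic fit.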

T2 sequence (P48736 144-1102 limits assumed): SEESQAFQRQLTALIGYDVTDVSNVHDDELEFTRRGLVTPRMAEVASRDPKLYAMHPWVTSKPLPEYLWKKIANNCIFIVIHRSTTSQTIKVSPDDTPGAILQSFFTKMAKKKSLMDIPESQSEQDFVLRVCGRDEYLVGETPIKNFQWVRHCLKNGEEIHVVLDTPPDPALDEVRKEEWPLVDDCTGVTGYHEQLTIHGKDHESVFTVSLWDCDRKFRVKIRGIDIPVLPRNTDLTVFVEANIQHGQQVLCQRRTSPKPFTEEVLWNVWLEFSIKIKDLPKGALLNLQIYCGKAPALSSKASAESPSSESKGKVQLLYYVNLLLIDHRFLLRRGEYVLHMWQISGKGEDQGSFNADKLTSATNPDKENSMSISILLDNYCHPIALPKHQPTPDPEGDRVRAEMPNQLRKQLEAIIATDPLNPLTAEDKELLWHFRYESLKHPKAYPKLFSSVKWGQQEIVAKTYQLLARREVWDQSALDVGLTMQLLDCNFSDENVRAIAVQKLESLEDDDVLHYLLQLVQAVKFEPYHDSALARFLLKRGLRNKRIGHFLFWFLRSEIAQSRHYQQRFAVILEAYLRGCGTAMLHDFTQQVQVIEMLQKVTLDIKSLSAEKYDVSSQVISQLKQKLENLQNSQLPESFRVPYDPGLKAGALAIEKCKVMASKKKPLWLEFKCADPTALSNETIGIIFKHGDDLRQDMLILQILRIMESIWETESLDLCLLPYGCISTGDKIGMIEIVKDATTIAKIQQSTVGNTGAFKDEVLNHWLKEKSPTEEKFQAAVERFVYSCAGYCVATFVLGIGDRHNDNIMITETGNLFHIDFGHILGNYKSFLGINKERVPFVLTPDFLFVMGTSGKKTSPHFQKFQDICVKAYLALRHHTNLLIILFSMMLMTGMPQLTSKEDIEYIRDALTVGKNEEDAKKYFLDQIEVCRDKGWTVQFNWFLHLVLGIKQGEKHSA
T1 sequence (P42345 1360-2549 limits assumed): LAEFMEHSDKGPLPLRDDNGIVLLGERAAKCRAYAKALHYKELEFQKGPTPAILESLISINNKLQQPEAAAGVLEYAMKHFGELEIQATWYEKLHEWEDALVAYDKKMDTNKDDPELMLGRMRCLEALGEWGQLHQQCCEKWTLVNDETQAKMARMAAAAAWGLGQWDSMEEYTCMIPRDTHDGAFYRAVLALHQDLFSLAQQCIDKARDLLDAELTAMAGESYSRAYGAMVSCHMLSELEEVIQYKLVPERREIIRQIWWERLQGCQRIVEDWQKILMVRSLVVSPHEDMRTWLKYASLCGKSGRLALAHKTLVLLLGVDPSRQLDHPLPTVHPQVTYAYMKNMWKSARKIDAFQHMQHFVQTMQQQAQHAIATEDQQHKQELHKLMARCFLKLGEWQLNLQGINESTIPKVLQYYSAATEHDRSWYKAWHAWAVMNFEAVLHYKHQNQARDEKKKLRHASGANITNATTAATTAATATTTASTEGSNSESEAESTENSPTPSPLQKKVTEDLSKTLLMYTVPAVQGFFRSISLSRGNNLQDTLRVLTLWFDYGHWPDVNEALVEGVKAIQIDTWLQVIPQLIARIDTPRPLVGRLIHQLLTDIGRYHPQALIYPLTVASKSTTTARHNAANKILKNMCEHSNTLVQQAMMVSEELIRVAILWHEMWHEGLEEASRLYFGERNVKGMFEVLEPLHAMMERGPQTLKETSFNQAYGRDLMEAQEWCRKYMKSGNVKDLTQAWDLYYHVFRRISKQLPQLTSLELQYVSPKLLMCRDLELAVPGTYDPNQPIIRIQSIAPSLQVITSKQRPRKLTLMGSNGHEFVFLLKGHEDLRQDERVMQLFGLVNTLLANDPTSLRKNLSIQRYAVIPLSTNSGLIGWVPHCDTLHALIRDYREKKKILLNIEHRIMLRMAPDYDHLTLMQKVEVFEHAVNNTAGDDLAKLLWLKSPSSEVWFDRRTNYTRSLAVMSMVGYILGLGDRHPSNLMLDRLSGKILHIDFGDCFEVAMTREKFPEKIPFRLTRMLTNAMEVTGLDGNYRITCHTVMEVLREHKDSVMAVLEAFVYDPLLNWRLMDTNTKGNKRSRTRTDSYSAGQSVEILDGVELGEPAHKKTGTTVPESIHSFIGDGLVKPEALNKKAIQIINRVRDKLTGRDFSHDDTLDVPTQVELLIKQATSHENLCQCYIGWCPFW

IC50 (mTOR) [nM] | IC50 (PI3K gamma) [nM] | SMILES
65 | 145 | CCn1cc(-n2c(=O)n(C)c3cnc4ccc(-c5ccc(OC)c(OC)c5)nc4c32)c(C)n1 [Example 254, 8-(3,4-Dimethoxy-phenyl)-1-(1-ethyl-3-methyl-1H-pyrazol-4-yl)-3-methyl-1,3-dihydro-1,3,5,9-tetraaza-cyclopenta[a]naphthalen-2-one]
11 | 150 | CN(C)c1ccc(-c2ccc3ncc4c(c3c2)n(-c2cn(C)nc2Cl)c(=O)n4C)cn1 [Example 4.9, 1-(3-Chloro-1-methyl-1H-pyrazol-4-yl)-8-(6-dimethylamino-pyridin-3-yl)-3-methyl-1,3-dihydro-imidazo[4,5-c]quinolin-2-one]
< 3 | 75 | Cc1nn(C)cc1-n1c(=O)n(C)c2cnc3ccc(-c4ccc(-c5ncc[nH]5)cc4)cc3c21 [Example 77, 1-(1,3-Dimethyl-1H-pyrazol-4-yl)-8-[4-(1H-imidazol-2-yl)-phenyl]-3-methyl-1,3-dihydro-imidazo[4,5-c]quinolin-2-one]
69 | 75 | CNS(=O)(=O)c1cccc(-c2ccc3ncc4c(c3c2)n(-c2cn(C)nc2C)c(=O)n4C)c1 [Example 39, 3-[1-(1,3-Dimethyl-1H-pyrazol-4-yl)-3-methyl-2-oxo-2,3-dihydro-1H-imidazo[4,5-c]quinolin-8-yl]-N-methyl-benzenesulfonamide]
